Literature values as cited in patent US9278101B2, “Ophthalmologic irrigation solutions and method” (Omeros Corporation, priority 2002, dated 2016).

Columns and labels:
[1] = system: non-adrenoceptor imidazoline binding sites
[2] = system: alpha-1 receptor subtypes; conditions: three alpha-1 receptor subtypes
[3] = in vivo

Brc1c(NC2=NCCN2)ccc2nccnc12 [UK14304, 5-bromo-N-(4,5-dihydro-1H-imidazol-2-yl)-6-quinoxalinamine]
affinity for non-adrenoceptor imidazoline binding sites [1]: high affinity (nanomolar)

Clc1cccc(Cl)c1N=C1NCCN1 [clonidine]
affinity for non-adrenoceptor imidazoline binding sites [1]: high affinity (nanomolar)

c1ccc2c(c1)OCC(C1=NCCN1)O2 (stereo not drawn) [idazoxan]
affinity for non-adrenoceptor imidazoline binding sites [1]: high affinity (nanomolar)

Cc1cc(C(C)(C)C)c(O)c(C)c1CC1=NCCN1 [oxymetazoline]
affinity for non-adrenoceptor imidazoline binding sites [1]: high affinity (nanomolar)

COc1cc2nc(N3CCN(C(=O)c4ccco4)CC3)nc(N)c2cc1OC [prazosin]
affinity for alpha-1 receptor subtypes [2]: high affinity (subnanomolar)

tropicamide
half-life [3]: 4 to 6 h
